According to patent publication US20070021434A1, “NON-NUCLEOSIDE ANTI-HEPACIVIRUS AGENTS AND USES THEREOF” (Migenix Inc., priority 2005, published 2007):

Target: HCV RdRp (NS5B) (UniProt P26663)
Type: biochemical, hepatitis C virus

Sequence of HCV RdRp (NS5B) (P26663 whole entry, looked up): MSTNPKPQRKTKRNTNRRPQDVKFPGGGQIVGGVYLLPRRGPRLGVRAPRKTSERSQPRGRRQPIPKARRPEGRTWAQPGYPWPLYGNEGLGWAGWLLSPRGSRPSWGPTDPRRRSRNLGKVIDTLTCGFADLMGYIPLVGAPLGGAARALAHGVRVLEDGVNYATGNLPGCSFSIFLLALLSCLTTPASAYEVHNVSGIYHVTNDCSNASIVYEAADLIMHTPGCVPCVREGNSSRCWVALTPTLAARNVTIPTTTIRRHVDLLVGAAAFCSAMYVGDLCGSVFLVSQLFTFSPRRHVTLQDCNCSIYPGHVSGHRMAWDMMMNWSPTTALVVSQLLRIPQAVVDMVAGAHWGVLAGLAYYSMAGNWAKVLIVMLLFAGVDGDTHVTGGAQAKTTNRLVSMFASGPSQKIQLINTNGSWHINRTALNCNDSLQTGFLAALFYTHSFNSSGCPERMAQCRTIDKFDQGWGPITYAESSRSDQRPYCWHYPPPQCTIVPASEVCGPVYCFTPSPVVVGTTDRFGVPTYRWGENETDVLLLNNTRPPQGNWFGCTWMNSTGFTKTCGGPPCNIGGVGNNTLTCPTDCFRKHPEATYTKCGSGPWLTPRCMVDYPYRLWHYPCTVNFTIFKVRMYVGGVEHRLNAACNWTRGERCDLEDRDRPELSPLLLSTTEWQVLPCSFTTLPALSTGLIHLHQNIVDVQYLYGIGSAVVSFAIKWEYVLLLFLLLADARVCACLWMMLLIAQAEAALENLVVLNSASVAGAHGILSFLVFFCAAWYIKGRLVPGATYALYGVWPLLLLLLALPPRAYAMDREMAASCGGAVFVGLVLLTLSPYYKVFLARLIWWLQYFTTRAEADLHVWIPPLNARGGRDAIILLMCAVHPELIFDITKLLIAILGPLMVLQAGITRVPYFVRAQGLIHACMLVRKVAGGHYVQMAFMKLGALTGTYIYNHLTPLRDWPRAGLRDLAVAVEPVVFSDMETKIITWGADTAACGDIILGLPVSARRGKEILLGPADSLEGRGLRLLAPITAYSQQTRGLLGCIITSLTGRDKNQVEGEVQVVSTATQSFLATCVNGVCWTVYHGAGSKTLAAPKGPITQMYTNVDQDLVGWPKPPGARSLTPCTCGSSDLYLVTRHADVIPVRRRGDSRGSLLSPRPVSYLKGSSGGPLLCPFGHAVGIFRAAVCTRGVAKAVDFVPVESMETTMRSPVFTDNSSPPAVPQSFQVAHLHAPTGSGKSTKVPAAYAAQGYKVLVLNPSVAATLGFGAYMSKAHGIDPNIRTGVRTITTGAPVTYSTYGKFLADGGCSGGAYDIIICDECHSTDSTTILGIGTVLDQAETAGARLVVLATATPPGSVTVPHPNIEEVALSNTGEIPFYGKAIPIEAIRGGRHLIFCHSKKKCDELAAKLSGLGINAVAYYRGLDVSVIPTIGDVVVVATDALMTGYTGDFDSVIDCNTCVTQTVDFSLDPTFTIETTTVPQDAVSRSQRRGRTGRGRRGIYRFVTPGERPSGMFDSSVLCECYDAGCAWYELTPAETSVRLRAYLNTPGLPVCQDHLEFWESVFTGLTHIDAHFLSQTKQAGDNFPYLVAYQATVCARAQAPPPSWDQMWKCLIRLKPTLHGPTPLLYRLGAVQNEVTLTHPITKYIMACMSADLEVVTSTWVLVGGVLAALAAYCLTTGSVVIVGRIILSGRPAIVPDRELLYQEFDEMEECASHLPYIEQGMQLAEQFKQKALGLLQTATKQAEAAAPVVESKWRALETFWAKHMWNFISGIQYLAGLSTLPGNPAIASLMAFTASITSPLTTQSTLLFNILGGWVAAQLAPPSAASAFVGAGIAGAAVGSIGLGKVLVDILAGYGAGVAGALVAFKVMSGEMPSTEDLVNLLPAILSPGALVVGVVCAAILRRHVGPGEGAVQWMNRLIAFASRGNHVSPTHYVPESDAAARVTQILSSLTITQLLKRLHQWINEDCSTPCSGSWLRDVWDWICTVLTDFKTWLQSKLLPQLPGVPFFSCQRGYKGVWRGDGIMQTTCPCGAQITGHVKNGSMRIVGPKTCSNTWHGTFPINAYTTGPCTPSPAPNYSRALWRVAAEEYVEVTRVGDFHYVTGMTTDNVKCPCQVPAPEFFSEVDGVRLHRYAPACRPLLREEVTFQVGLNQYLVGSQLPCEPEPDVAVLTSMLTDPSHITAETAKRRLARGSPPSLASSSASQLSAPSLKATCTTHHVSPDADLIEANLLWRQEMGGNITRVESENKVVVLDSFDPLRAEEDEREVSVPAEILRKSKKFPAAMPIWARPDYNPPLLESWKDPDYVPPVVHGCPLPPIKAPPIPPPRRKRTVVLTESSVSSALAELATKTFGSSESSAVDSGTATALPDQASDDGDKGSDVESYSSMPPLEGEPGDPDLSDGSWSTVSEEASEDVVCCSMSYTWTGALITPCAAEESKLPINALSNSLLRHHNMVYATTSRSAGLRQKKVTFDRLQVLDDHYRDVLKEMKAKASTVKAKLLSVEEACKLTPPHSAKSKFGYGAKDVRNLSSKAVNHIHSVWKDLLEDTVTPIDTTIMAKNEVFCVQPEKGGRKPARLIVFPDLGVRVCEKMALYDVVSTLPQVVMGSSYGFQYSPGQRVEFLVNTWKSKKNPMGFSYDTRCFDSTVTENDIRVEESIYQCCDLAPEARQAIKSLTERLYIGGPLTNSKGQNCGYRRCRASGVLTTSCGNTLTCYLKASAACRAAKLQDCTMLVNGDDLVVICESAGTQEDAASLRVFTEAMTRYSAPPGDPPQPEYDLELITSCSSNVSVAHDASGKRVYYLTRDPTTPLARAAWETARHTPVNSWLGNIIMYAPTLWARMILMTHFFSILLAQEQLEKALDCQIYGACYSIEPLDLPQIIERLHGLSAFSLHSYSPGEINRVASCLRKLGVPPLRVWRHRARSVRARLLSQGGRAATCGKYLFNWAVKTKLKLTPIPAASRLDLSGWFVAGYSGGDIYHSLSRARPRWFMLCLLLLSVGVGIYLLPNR

SMILES	IC50 [µM]
Cc1ccc(NC(=O)[C@H](CCCCN)NC(=O)OCC2c3ccccc3-c3ccccc32)cc1C [Compound 216, (S)-[5-AMINO-1-(3,4-DIMETHYL-PHENYLCARBAMOYL)-PENTYL]-CARBAMIC ACID 9H-FLUOREN-9-YLMETHYL ESTER]	10 to 50
O=CNCCCC[C@H](NC(=O)OCC1c2ccccc2-c2ccccc21)C(=O)Nc1ccc(Cl)c(Cl)c1 [Compound 217, (S)-[1-(3,4-DICHLORO-PHENYLCARBAMOYL)-5-FORMYLAMINO-PENTYL]-CARBAMIC ACID 9H-FLUOREN-9-YLMETHYL ESTER]	10 to 50
NCCCC[C@H](NC(=O)OCC1c2ccccc2-c2ccccc21)C(=O)Nc1cccc(C(F)(F)F)c1 [Compound 218, (S)-[5-AMINO-1-(3-TRIFLUOROMETHYL-PHENYLCARBAMOYL)-PENTYL]-CARBAMIC ACID 9H-FLUOREN-9-YLMETHYL ESTER]	> 50
CC(=O)c1cccc(NC(=O)[C@H](CCCCN)NC(=O)OCC2c3ccccc3-c3ccccc32)c1 [Compound 219, (S)-[1-(3-ACETYL-PHENYLCARBAMOYL)-5-AMINO-PENTYL]-CARBAMIC ACID 9H-FLUOREN-9-YLMETHYL ESTER]	> 50
Cc1ccc(NC(=O)C(CCCNC(=O)C2CCCN2)NC(=O)OCC2c3ccccc3-c3ccccc32)cc1 [Compound 220, (S)-{4-[R-(PYRROLIDINE-2-CARBONYL)-AMINO]-1-P-TOLYLCARBAMOYL-BUTYL}-CARBAMIC ACID 9H-FLUOREN-9-YLMETHYL ESTER]	> 50
Cc1ccc(NC(=O)C(CCNC(=O)CN)NC(=O)OCC2c3ccccc3-c3ccccc32)cc1 [Compound 221, (S)-[3-(2-AMINO-ACETYLAMINO)-1-P-TOLYLCARBAMOYL-PROPYL]-CARBAMIC ACID 9H-FLUOREN-9-YLMETHYL ESTER]	> 50
Cc1ccc(NC(=O)C(CNC(=O)CNC(=O)CN)NC(=O)OCC2c3ccccc3-c3ccccc32)cc1 [Compound 222, (S)-{2-[2-(2-AMINO-ACETYLAMINO)-ACETYLAMINO]-1-P-TOLYLCARBAMOYL-ETHYL}-CARBAMIC ACID 9H-FLUOREN-9-YLMETHYL ESTER]	10 to 50
CNCC(=O)NCCCC(NC(=O)OCC1c2ccccc2-c2ccccc21)C(=O)Nc1ccc(C)cc1 [Compound 223, (S)-[4-(2-METHYLAMINO-ACETYLAMINO)-1-P-TOLYLCARBAMOYL-BUTYL]-CARBAMIC ACID 9H-FLUOREN-9-YLMETHYL ESTER]	10 to 50
Cc1ccc(NC(=O)[C@H](CCCCN)NC(=O)Nc2ccc(NCc3ccccc3)cc2)cc1 [Compound 224, (S)-6-AMINO-2-[3-(4-BENZYLAMINO-PHENYL)-UREIDO]-HEXANOIC ACID P-TOLYLAMIDE]	10 to 50
Cc1ccc(NC(=O)[C@H](CCCCN)NC(=O)Nc2ccc(NCc3ccc(F)cc3)cc2)cc1 [Compound 225, (S)-6-AMINO-2-{3-[4-(4-FLUORO-BENZYLAMINO)-PHENYL]-UREIDO}-HEXANOIC ACID P-TOLYLAMIDE]	> 50
NCCCC[C@H](NC(=O)Nc1ccc2c(c1)Cc1ccccc1-2)C(=O)Nc1ccc(C2CCCCC2)cc1 [Compound 226, (S)-6-AMINO-2-[3-(9H-FLUOREN-2-YL)-UREIDO]-HEXANOIC ACID (4-CYCLOHEXYL-PHENYL)-AMIDE]	> 50
Cc1cc2cc(NC(=O)[C@H](Cc3ccc(CN)cc3)NC(=O)Nc3ccc(OCc4ccccc4)cc3)ccc2[nH]1 [Compound 227, (S)-3-(4-AMINOMETHYL-PHENYL)-2-[3-(4-BENZYLOXY-PHENYL)-UREIDO]-N-(2-METHYL-1H-INDOL-5-YL)-PROPIONAMIDE]	< 10
Cc1ccc(NC(=O)[C@H](CCCCN)NC(=O)OCC2c3ccccc3-c3ccccc32)cn1 [Compound 229, (S)-[5-AMINO-1-(6-METHYL-PYRIDIN-3-YLCARBAMOYL)-PENTYL]-CARBAMIC ACID 9H-FLUOREN-9-YLMETHYL ESTER]	> 50
CC(=O)Nc1ccc(NC(=O)[C@H](CCCCN)NC(=O)OCC2c3ccccc3-c3ccccc32)cc1 [Compound 230, (S)-[1-(4-ACETYLAMINO-PHENYLCARBAMOYL)-5-AMINO-PENTYL]-CARBAMIC ACID 9H-FLUOREN-9-YLMETHYL ESTER]	> 50
CC(=O)Nc1cccc(NC(=O)[C@H](CCCCN)NC(=O)OCC2c3ccccc3-c3ccccc32)c1 [Compound 231, (S)-[1-(3-ACETYLAMINO-PHENYLCARBAMOYL)-5-AMINO-PENTYL]-CARBAMIC ACID 9H-FLUOREN-9-YLMETHYL ESTER]	> 50
NCCCC[C@H](NC(=O)OCC1c2ccccc2-c2ccccc21)C(=O)Nc1ccncc1 [Compound 232, (S)-[5-AMINO-1-(PYRIDIN-4-YLCARBAMOYL)-PENTYL]-CARBAMIC ACID 9H-FLUOREN-9-YLMETHYL ESTER]	> 50
Cc1cc2cc(NC(=O)[C@H](CCCCNC(=O)CN)NC(=O)OCC3c4ccccc4-c4ccccc43)ccc2[nH]1 [Compound 233, (S)-[5-(2-AMINO-ACETYLAMINO)-1-(2-METHYL-1H-INDOL-5-YLCARBAMOYL)-PENTYL]-CARBAMIC ACID 9H-FLUOREN-9-YLMETHYL ESTER]	< 10
Cc1cc2cc(NC(=O)C(Cc3ccc(CN)cc3)NC(=O)Nc3ccc(-c4ccccc4)cc3)ccc2[nH]1 [Compound 234, (S)-3-(4-AMINOMETHYL-PHENYL)-2-(3-BIPHENYL-4-YL-UREIDO)—NR-(2-METHYL-1H-INDOL-5-YL)-PROPIONAMIDE]	10 to 50

SMILES	IC50 [µM]
Cc1cc2cc(NC(=O)[C@H](Cc3ccc(CN)cc3)NC(=O)Nc3ccc4c(c3)Cc3ccccc3-4)ccc2[nH]1 [Compound 235, (S)-3-(4-AMINOMETHYL-PHENYL)-2-[3-(9H-FLUOREN-2-YL)-UREIDO]-N-(2-METHYL-1H-INDOL-5-YL)-PROPIONAMIDE]	< 10
Cc1ccc(NC(=O)C(CCCCN)NC(=O)Nc2ccc(C=Cc3ccccc3)cc2)cc1 [Compound 236, (S)-6-AMINO-2-[3-(4-STYRYL-PHENYL)-UREIDO]-HEXANOIC ACID P-TOLYLAMIDE]	< 10
Cc1cc2cc(NC(=O)[C@H](CCCNC(=O)CN)NC(=O)OCC3c4ccccc4-c4ccccc43)ccc2[nH]1 [Compound 238, (S)-[4-(2-AMINO-ACETYLAMINO)-1-(2-METHYL-1H-INDOL-5-YLCARBAMOYL)-BUTYL]-CARBAMIC ACID 9H-FLUOREN-9-YLMETHYL ESTER]	< 10
Cc1cc2cc(NC(=O)[C@H](CCCCNC(=O)CN)NC(=O)Nc3ccc(OCc4ccccc4)cc3)ccc2[nH]1 [Compound 239, (S)-6-(2-AMINO-ACETYLAMINO)-2-[3-(4-BENZYLOXY-PHENYL)-UREIDO]-HEXANOIC ACID (2-METHYL-1H-INDOL-5-YL)-AMIDE]	< 10
Cc1cc2cc(NC(=O)[C@H](CCNC(=O)CN)NC(=O)Nc3ccc(OCc4ccccc4)cc3)ccc2[nH]1 [Compound 241, (S)-4-(2-AMINO-ACETYLAMINO)-2-[3-(4-BENZYLOXY-PHENYL)-UREIDO]-N-(2-METHYL-1H-INDOL-5-YL)-BUTYRAMIDE]	< 10
CCNCC(=O)NCCCC(NC(=O)OCC1c2ccccc2-c2ccccc21)C(=O)Nc1ccc(C)cc1 [Compound 242, (S)-[4-(2-ETHYLAMINO-ACETYLAMINO)-1-P-TOLYLCARBAMOYL-BUTYL]-CARBAMIC ACID 9H-FLUOREN-9-YLMETHYL ESTER]	< 10
Cc1ccc(NC(=O)C(CCCCN)NC(=O)Nc2ccc(CCc3ccccc3)cc2)cc1 [Compound 243, (S)-6-AMINO-2-[3-(4-PHENETHYL-PHENYL)-UREIDO]-HEXANOIC ACID P-TOLYLAMIDE]	> 50
CCCCOc1ccc(NC(=O)N[C@@H](CCCCN)C(=O)Nc2ccc(C)cc2)cc1 [Compound 244, (S)-6-AMINO-2-[3-(4-BUTOXY-PHENYL)-UREIDO]-HEXANOIC ACID P-TOLYLAMIDE]	> 50
CCOC(=O)c1ccc(NC(=O)NC(CCCCN)C(=O)Nc2ccc(C)cc2)cc1 [Compound 245, (S)-4-[3-(5-AMINO-1-P-TOLYLCARBAMOYL-PENTYL)-UREIDO]-BENZOIC ACID ETHYL ESTER]	> 50
Cc1ccc(NC(=O)C[C@H](CCCCN)NC(=O)Nc2ccc3c(c2)Cc2ccccc2-3)cc1 [Compound 247, (S)-7-AMINO-3-[3-(9H-FLUOREN-2-YL)-UREIDO]-HEPTANOIC ACID P-TOLYLAMIDE]	10 to 50
Cc1ccc(NC(=O)[C@H](CCCCN)NC(=O)Nc2ccc(OCc3ccccc3F)cc2)cc1 [Compound 248, (S)-6-AMINO-2-{3-[4-(2-FLUORO-BENZYLOXY)-PHENYL]-UREIDO}-HEXANOIC ACID P-TOLYLAMIDE]	10 to 50
Cc1ccc(NC(=O)[C@H](CCCCN)NC(=O)Nc2ccc(OCc3cccc(F)c3)cc2)cc1 [Compound 249, (S)-6-AMINO-2-{3-[4-(3-FLUORO-BENZYLOXY)-PHENYL]-UREIDO}-HEXANOIC ACID P-TOLYLAMIDE]	10 to 50
Cc1ccc(NC(=O)[C@H](CCCCN)NC(=O)Nc2ccc(OCc3ccc(F)cc3)cc2)cc1 [Compound 250, (S)-6-AMINO-2-{3-[4-(4-FLUORO-BENZYLOXY)-PHENYL]-UREIDO}-HEXANOIC ACID P-TOLYLAMIDE]	10 to 50
Cc1ccc(NC(=O)C(CCCCN)NC(=O)Nc2ccc(CN(C)c3ccc([N+](=O)[O-])cc3)cc2)cc1 [Compound 251, (S)-6-AMINO-2-[3-(4-{[METHYL-(4-NITRO-PHENYL)-AMINO]-METHYL}-PHENYL)-UREIDO]-HEXANOIC ACID P-TOLYLAMIDE]	< 10
COc1ccc(C=Cc2ccc(NC(=O)N[C@@H](CCCCN)C(=O)Nc3ccc(C)cc3)cc2)cc1 [Compound 252, (S)-6-AMINO-2-(3-{4-[2-(4-METHOXY-PHENYL)-VINYL]-PHENYL}-UREIDO)-HEXANOIC ACID P-TOLYLAMIDE]	< 10
Cc1ccc(NC(=O)[C@H](CCCCN)NC(=O)Nc2ccc(OCc3ccccc3)c(Cl)c2)cc1 [Compound 253, (S)-6-AMINO-2-[3-(4-BENZYLOXY-3-CHLORO-PHENYL)-UREIDO]-HEXANOIC ACID P-TOLYLAMIDE]	10 to 50
Cc1ccc(NC(=O)[C@H](CCCCN)NC(=O)Nc2ccc(OCc3ccccc3)cc2)cc1C [Compound 254, (S)-6-AMINO-2-[3-(4-BENZYLOXY-PHENYL)-UREIDO]-HEXANOIC ACID (3,4-DIMETHYL-PHENYL)-AMIDE]	10 to 50
NCCCC[C@H](NC(=O)Nc1ccc(OCc2ccccc2)cc1)C(=O)NC1CCCC1 [Compound 255, (S)-6-AMINO-2-[3-(4-BENZYLOXY-PHENYL)-UREIDO]-HEXANOIC ACID CYCLOPENTYLAMIDE]	10 to 50
